For one compound, EC50 and IC50 results are on record in article PMC3466466, “Taltirelin is a superagonist at the human thyrotropin-releasing hormone receptor” (Frontiers in Endocrinology, 2012).

Each structure is given as a SMILES string.

In general, EC50 refers to the concentration at which the effect is half-maximal. The IC50 is the concentration that inhibits the measured activity by half.

Assay [1] has as its target T1, TRH-R (human TRH receptor) (Homo sapiens, UniProt P34981).
T1 construct: gene TRHR; full-length human cDNA subcloned into pcDNA3.1(+)/hygromycin; stably expressed in HEK-EM 293 cells, 16,000 receptors/cell
T1 sequence (P34981 1-398): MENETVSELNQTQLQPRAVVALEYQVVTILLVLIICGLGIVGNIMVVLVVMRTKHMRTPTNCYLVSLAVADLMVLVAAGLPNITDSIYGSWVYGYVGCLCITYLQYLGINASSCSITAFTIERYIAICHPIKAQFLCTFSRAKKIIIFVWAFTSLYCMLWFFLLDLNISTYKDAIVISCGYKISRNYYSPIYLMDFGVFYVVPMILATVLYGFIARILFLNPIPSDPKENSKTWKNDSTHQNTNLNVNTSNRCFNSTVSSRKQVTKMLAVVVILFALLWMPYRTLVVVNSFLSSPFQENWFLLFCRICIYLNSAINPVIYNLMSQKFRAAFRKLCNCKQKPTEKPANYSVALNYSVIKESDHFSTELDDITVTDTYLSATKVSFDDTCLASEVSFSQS
As to the kind of experiment: intracellular Ca2+ release, calcium […] dye, FLIPR. To be noted: read-out: EC50 for Ca signaling. Format: cell-based.

Assay [2] has as its target T1, TRH-R (human TRH receptor). As to the kind of experiment: [3H]MeTRH competition binding, intact HEK-EM […] cells. It counts as cell-based.

Take `CN1C(=O)C[C@@H](C(=O)N[C@@H](Cc2c[nH]cn2)C(=O)N2CCC[C@H]2C(N)=O)NC1=O` [TAL, N-[[(4S)-Hexahydro-1-methyl-2,6-dioxo-4-pyrimidinyl]carbonyl]-L-histidyl-L-prolinamide]: the EC50 in assay [1] was found to be 0.036 µM. Also, the IC50 in assay [2] came to 0.91 µM.
